# Patent US11541029B2, “High penetration compositions and their applications” (Techfields Pharma Co., Ltd., priority 2008, dated 2023)
# How the values were obtained:
# [1] = Amount of salicylic acid in rat plasma and brain, 0.3 mmol/kg
# Source text: 20 male rats were divided into 4 groups (n=5). 0.3 mmol/kg of diethylaminoethyl acetylsalicylate.HCl salt was administrated into rats intramuscularly (20% in 70% ethanol) or transdermally (10% in 70% ethanol, on the shaved back of rat, 10 cm^2) and 0.3 mmol/kg of aspirin was administrated into rats intramuscularly (20% in 70% ethanol) or transdermally (10% in 70% ethanol, on the shaved back of rat, 10 cm^2). […] The plasma or brain tissue (the whole brain was washed with pH 7.4 buffer for 3 times) was homogenized immediately in 3-5 ml of methanol, using a tissue tearor at 30,000 rpm (about 2 min.).
# [2] = tested on: diseases and insects of rice; experiment: Antiviral, anti-fungus, anti-insect activity in rice; format: in vivo
# [3] = Amount of salicylic acid in rat brain tissue (blood-brain barrier), 0.5 mmol/kg; format: in vivo, rats
# Method: 30, 60, 120, 240, 480 minutes after the test compound was administrated, rats were decapitated and were perfused with normal Krebs-Henseleit buffer (with Heparin Sodium, pH7.4) (10 mL/min) to remove blood. […] The mixture was centrifuged for 5 minutes at 16,000 rpm. The supernatant (2 ml) was collected and evaporated to dryness.
# [4] = tested on: type 2 diabetes rat models [SLAC/GK(Goto and Kakisaki)]; experiment: Hypoglycemic effects of aspirin and its HPC in GK rats, once per day for 6 weeks; format: in vivo; details: for Blood Glucose Levels at day 1 / Blood Glucose Levels at day 42: no fasting, n = 5;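 as to Blood Glucose Levels at day 42: blood glucose in mg/dL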
# Method: The blood glucose levels were measured three times every week (no fasting) from the third week to the sixth week.
smiles,measurement,setting,value
"CCN(CC)CCOC(=O)c1ccccc1OC(C)=O.Cl [P-1, diethylaminoethyl acetylsalicylate.HCl salt]",salicylic acid in Plasma (1 hr),[1]; intramuscularly,378 ± 34 nmol/mL
same,salicylic acid in Plasma (8 hr),[1]; intramuscularly,123 ± 25 nmol/mL
same,salicylic acid in Plasma (18 hr),[1]; intramuscularly,0.9 ± 0.2 nmol/mL
same,salicylic acid in Plasma (1 hr),[1]; transdermally,158 ± 21 nmol/mL
same,salicylic acid in Plasma (8 hr),[1]; transdermally,103 ± 28 nmol/mL
same,salicylic acid in Plasma (18 hr),[1]; transdermally,1.1 ± 0.2 nmol/mL
same,Yield of good rice,"[2]; 1/2 acre per group, imidacloprid co-applied in group C",1800 kg
same,harvest dates earlier,[2]; group C and D,5 days
same,salicylic acid in brain tissue,"[3]; intramuscularly, 30 min",6.5 ± 2.2 nmol/g
same,salicylic acid in brain tissue,"[3]; intramuscularly, 60 min",8.2 ± 2.3 nmol/g
same,salicylic acid in brain tissue,"[3]; intramuscularly, 120 min",9.4 ± 3.1 nmol/g
same,salicylic acid in brain tissue,"[3]; intramuscularly, 240 min",8.5 ± 2.5 nmol/g
same,salicylic acid in brain tissue,"[3]; intramuscularly, 480 min",8.2 ± 2.3 nmol/g
same,salicylic acid in brain tissue,"[3]; transdermally, 30 min",3.1 ± 1.1 nmol/g
same,salicylic acid in brain tissue,"[3]; transdermally, 60 min",6.3 ± 2.3 nmol/g
same,salicylic acid in brain tissue,"[3]; transdermally, 120 min",8.2 ± 3.5 nmol/g
same,salicylic acid in brain tissue,"[3]; transdermally, 240 min",9.3 ± 3.3 nmol/g
same,salicylic acid in brain tissue,"[3]; transdermally, 480 min",9.5 ± 4.2 nmol/g
same,Blood Glucose Levels at day 1,"[4]; 50 mg/kg, orally",215.6 ± 19.5 mg/dL
same,Blood Glucose Levels at day 42,"[4]; 50 mg/kg, orally",172.4 ± 21.5 mg/dL
same,Blood Glucose Levels at day 1,"[4]; 50 mg/kg, transdermally",217.3 ± 19.7 mg/dL
same,Blood Glucose Levels at day 42,"[4]; 50 mg/kg, transdermally",135.4 ± 19.8 mg/dL
same,Blood Glucose Levels at day 1,"[4]; 100 mg/kg, orally",216.4 ± 18.5 mg/dL
same,Blood Glucose Levels at day 42,"[4]; 100 mg/kg, orally",133.4 ± 23.1 mg/dL
same,Blood Glucose Levels at day 1,"[4]; 100 mg/kg, transdermally",219.8 ± 20.4 mg/dL
same,Blood Glucose Levels at day 42,"[4]; 100 mg/kg, transdermally",115.4 ± 16.7 mg/dL
same,Blood Glucose Levels at day 1,"[4]; 200 mg/kg, orally",214.4 ± 26.5 mg/dL
same,Blood Glucose Levels at day 42,"[4]; 200 mg/kg, orally",125.4 ± 26.8 mg/dL
same,Blood Glucose Levels at day 1,"[4]; 200 mg/kg, transdermally",219.4 ± 23.5 mg/dL
same,Blood Glucose Levels at day 42,"[4]; 200 mg/kg, transdermally",111.4 ± 23.2 mg/dL
same,Blood Glucose Levels at day 1,"[4]; 300 mg/kg, orally",217.4 ± 25.5 mg/dL
same,Blood Glucose Levels at day 42,"[4]; 300 mg/kg, orally",115.4 ± 18.2 mg/dL
same,"anti-diabetic effect, times stronger than that of aspirin",[4]; oral administration,more than 5 times
